Results from ChEMBL document CHEMBL1649434, “Regulation of mprF in daptomycin-nonsusceptible Staphylococcus aureus strains” (2009).
Converted amounts (≈) assume the structure as drawn.

Key:
[1] = system: Staphylococcus aureus; test: Antimicrobial activity against Staphylococcus aureus isolate 701 harboring mprF C884A mutant gene by Etest; assay type: functional
[2] = system: Staphylococcus aureus; test: Antimicrobial activity against Staphylococcus aureus isolate 629 by Etest; assay type: functional
[3] = system: Staphylococcus aureus; test: Antimicrobial activity against Staphylococcus aureus isolate 703 harboring mprF C884A mutant gene by Etest; assay type: functional
[4] = system: Staphylococcus aureus; test: microbe, parasite or virus in culture; conditions: isolate 616
Description: Antimicrobial activity against Staphylococcus aureus isolate 616 by Etest

CCCCCCCCCC(=O)N[C@@H](Cc1c[nH]c2ccccc12)C(=O)N[C@H](CC(N)=O)C(=O)N[C@@H](CC(=O)O)C(=O)N[C@@H]1C(=O)NCC(=O)N[C@@H](CCCN)C(=O)N[C@@H](CC(=O)O)C(=O)N[C@H](C)C(=O)N[C@@H](CC(=O)O)C(=O)NCC(=O)N[C@H](CO)C(=O)N[C@@H]([C@H](C)CC(=O)O)C(=O)N[C@@H](CC(=O)c2ccccc2N)C(=O)O[C@@H]1C
MIC [1]: 2 µg/mL (≈ 1.23 µM) | MIC [2]: 0.75 µg/mL (≈ 0.463 µM) | MIC [3]: 2 µg/mL (≈ 1.23 µM) | MIC [4]: 0.5 µg/mL (≈ 0.309 µM)
